Results reported in US11999745B2, “Pharmaceutical compounds” (Heptares Therapeutics Limited, priority 2020, dated 2024).

Experiments:
Format in all cases: cell-based
[1] = molecular target: T1, human muscarinic M3 receptor (Homo sapiens, UniProt P20309); assay: Alphascreen Surefire phospho-ERK1/2 functional assay, M3; conditions: for Emax: CHO cells stably expressing human M3, read-out: % Emax cf. ACh, M3
T1 construct: expressed in transfected cells
Method: (§1) ERK1/2 phosphorylation is a downstream consequence of both Gq/11 and Gi/o protein coupled receptor activation, making it highly suitable for the assessment of M1, M3 (Gq/11 coupled) and M2, M4 receptors (Gi/o coupled), rather than using different assay formats for different receptor subtypes. CHO cells stably expressing the human muscarinic M1, M2, M3 or M4 receptor were plated (25K/well) onto 96-well tissue culture plates in MEM-alpha+10% dialysed FBS. Once adhered, cells were serum-starved overnight. Agonist stimulation was performed by the addition of 5 μL agonist to the cells for 5 min (37° C.). Media was removed and 50 μL of lysis buffer added.

[2] = molecular target: T2, human muscarinic M4 receptor (Homo sapiens, UniProt P08173); assay: Alphascreen Surefire phospho-ERK1/2 functional assay, M4; conditions: for Emax: CHO cells stably expressing human M4, read-out: % Emax cf. ACh, M4
T2 construct: expressed in transfected cells
T2 sequence (P08173 1-479): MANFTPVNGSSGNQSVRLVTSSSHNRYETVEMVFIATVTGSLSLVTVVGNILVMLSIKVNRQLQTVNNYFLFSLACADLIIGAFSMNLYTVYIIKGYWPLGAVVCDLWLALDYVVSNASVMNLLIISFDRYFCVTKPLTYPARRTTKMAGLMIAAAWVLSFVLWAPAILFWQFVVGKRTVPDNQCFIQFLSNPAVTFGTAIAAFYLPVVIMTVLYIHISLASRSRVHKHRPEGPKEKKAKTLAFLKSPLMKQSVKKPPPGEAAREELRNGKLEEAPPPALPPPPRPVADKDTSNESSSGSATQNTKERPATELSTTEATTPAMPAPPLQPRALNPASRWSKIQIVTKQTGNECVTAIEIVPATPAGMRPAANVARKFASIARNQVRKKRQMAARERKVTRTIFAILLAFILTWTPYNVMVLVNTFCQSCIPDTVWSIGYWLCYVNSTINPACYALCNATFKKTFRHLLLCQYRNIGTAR
Method: as §1

[3] = molecular target: T3, human muscarinic M1 receptor (Homo sapiens, UniProt P11229); assay: Alphascreen Surefire phospho-ERK1/2 functional assay, M1; conditions: CHO cells stably expressing human M1, phospho-ERK1/2
T3 construct: expressed in transfected cells
T3 sequence (P11229 1-460): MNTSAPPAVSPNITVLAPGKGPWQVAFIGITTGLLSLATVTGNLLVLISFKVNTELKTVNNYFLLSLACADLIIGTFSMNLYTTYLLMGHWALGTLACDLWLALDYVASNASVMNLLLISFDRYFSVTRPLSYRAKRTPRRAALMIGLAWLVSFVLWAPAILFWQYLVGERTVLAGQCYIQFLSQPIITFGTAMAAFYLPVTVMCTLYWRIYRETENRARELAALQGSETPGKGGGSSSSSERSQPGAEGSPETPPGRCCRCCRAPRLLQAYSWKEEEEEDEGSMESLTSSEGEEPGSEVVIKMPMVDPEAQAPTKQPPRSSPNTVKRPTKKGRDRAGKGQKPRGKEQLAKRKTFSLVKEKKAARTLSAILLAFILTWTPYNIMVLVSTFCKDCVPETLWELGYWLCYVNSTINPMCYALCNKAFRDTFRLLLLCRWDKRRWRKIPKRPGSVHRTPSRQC
Method: as §1

[4] = molecular target: T4, human muscarinic M2 receptor (Homo sapiens, UniProt P08172); assay: Alphascreen Surefire phospho-ERK1/2 functional assay, M2
T4 construct: expressed in transfected cells
T4 sequence (P08172 1-466): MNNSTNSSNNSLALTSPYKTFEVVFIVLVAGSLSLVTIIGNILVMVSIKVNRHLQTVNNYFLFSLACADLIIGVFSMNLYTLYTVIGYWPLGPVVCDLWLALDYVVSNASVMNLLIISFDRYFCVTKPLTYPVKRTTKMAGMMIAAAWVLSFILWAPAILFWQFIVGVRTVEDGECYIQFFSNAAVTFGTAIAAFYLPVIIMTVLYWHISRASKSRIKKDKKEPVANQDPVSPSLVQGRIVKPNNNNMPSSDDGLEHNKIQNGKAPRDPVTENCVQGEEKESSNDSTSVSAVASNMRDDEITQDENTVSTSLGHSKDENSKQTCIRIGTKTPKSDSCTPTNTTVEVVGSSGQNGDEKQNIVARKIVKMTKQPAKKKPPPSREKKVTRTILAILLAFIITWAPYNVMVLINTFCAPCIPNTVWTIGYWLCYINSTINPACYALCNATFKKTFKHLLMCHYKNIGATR
Method: as §1

T1 sequence (P20309 whole entry): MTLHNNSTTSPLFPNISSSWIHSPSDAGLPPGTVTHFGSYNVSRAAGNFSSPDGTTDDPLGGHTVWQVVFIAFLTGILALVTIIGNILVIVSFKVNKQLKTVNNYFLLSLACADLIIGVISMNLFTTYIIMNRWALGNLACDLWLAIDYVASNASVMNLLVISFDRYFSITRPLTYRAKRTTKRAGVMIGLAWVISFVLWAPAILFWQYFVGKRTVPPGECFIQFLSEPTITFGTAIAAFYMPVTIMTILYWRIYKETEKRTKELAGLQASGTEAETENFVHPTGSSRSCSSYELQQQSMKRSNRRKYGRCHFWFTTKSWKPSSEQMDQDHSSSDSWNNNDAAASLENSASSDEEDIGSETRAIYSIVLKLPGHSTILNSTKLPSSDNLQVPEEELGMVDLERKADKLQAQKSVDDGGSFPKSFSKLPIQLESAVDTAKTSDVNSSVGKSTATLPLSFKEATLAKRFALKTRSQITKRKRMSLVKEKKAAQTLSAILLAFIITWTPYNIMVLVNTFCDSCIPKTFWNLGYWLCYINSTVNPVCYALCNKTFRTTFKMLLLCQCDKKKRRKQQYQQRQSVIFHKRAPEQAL

SMILES | Emax [1] | Emax [2] | pEC50 M1 [3] | Emax ([3]; read-out: % Emax cf. ACh, M1) | Emax ([4]; CHO cells stably expressing human M2, read-out: % Emax cf. ACh, M2) | EC50 ([4]; CHO cells stably expressing human M2, read-out: pEC50 M2 (converted)) | EC50 ([1]; CHO cells stably expressing human M3, read-out: pEC50 M3 (converted)) | EC50 ([2]; CHO cells stably expressing human M4, read-out: pEC50 M4 (converted))
CC(=O)OCC[N+](C)(C)C [Acetylcholine, reference compound] | 102% | 108% |  |  |  |  |  | 
CC(C)(C)NC(=O)C1CCN([C@H]2C[C@H]3CC[C@@H](C2)N3c2nc(C(F)(F)F)no2)CC1.Cl [Example 1-1, N-(tert-butyl)-1-((1R,3r,5S)-8-(3-(trifluoromethyl)-1,2,4-oxadiazol-5-yl)-8-azabicyclo[3.2.1]octan-3-yl)piperidine-4-carboxamide hydrochloride] | 3% | 32% | 7.17 | 92% | 7% | > 20 µM | > 20 µM | 0.12 µM
